Key:
[1] = system: washed human platelets; test: In vitro washed human platelet aggregation test (thrombin-induced); assay type: cell-based; conditions: ML355 10 μM, sHDL 100 μg/mL, 15 minutes
Experimental: Human platelets were prepared and aggregation was assayed as described previously (44, 45, 56). Platelets were incubated with DMSO (equivalent volume to dissolve ML355) and treated with control, ML355 (10 μM), sHDL (100 μg/mL), or ML355-sHDL (sHDL at 100 μg/mL and ML355 at 10 μM) for 15 minutes. In addition, untreated platelets were included as control. Platelet aggregation was induced by various doses of thrombin (0.1-1 nM) as reported in previous studies (44). Aggregation was measured in response to thrombin with a lumi-aggregometer (Model 700D; Chrono-Log) under stirring conditions at 1100 rpm at 37° C.

[2] = system: washed mouse platelets; test: Ex vivo washed mice platelet activation inhibition test (thrombin-induced aggregation); assay type: in vivo; conditions: for platelet aggregation: 24 hours after IV ML355 1.5 mg/kg, sHDL 50 mg/kg
Experimental: Male and female C57BL/6J mice were divided into four groups (n=4) and intravenously dosed with the following formulations: 1) control vehicle (equivalent volume); 2) ML355 (1.5 mg/kg); 3) sHDL (50 mg/kg); or 4) ML355-sHDL (sHDL at 50 mg/kg and ML355 at 1.5 mg/kg). 24 hours after administration, mice were sacrificed under terminal anesthesia. […] Mouse platelet preparation was performed as previously described (44, 45). Murine platelets were resuspended at 3×10^8 platelets/mL in Tyrode's buffer. Mouse platelet aggregation was induced by various doses of thrombin (0.1-0.5 nM) and measured with a lumi-aggregometer using the same method described above.

[3] = system: C57BL/6J mice; test: Laser-induced cremaster arteriole thrombosis model; assay type: in vivo, mouse; conditions: IV 24 hours before injury; ML355 1.5 mg/kg, sHDL 50 mg/kg
Experimental: Male C57BL/6J mice (n=3) were intravenously dosed with the following treatments: 1) saline control (equivalent volume); 2) ML355 (1.5 mg/kg); 3) sHDL (50 mg/kg); or 4) ML355-sHDL (sHDL at 50 mg/kg and ML355 at 1.5 mg/kg). 24 hours post-administration, mice were anesthetized and surgically prepared as above described. DyLight 647-conjugated rat anti-mouse platelet GP11:43 antibody (0.1 μg/g; X649; EMFRET Analytics) was administered by jugular vein cannula prior to vascular injury. Multiple independent thrombi (8-10) were induced in the arterioles (30-50 μm diameter) in each mouse (3 mice per group) by a laser ablation system. All captured images were analyzed for change in fluorescent intensity over time of thrombus formation by subtracting fluorescent background defined on an uninjured section of the vessel using the Slidebook program. To monitor and compare dynamic thrombus formation among different treatment groups, the relative fluorescent intensity of Alexa Flour 647-labled platelets (recruited within thrombus) was plotted using the mean fluorescence at each time point. Data were evaluated for significance with two-way ANOVA and Mann-Whitney test for nonparametric data using Prism 6 software (Graphpad, La Jolla, CA, USA).

[4] = system: C57BL/6J mice; test: FeCl3-induced carotid artery thrombosis model; assay type: in vivo, mouse; conditions: IV 24 hours before 10% FeCl3 injury
Experimental: Male and female C57BL/6J mice (n=6) were intravenously injected with vehicle control (equivalent volume of saline), ML355 (1.5 mg/kg), sHDL (50 mg/kg) or ML355-sHDL (sHDL at 50 mg/kg and ML355 at 1.5 mg/kg), respectively. 24 hours post-administration, mice were anesthetized as described above and tail veins were injected with a DyLight 488 anti-GPIb (1 μg/g; Emfret, Elbelstadt, Germany) to label circulating resting platelets in mice prior to intravital microscopy imaging. The mice were placed on a heating pad and the right common carotid artery was prepared under the dissecting microscope. Then, the mice were placed on the microscopic stage and blood flow in the carotid artery was visualized under 10× air objective using a Zeiss Axio Examiner Z1 upright fluorescent microscopy. Carotid artery injury was induced by topically placing a 10% FeCl3 saturated Whatman paper for 3 minutes under recording. Images of platelet adhesion and the dynamics of thrombus formation were recorded for 30 minutes using a high-speed sCMOS camera using Slidebook 6.0.

[5] = system: platelets; test: Phosphatidylserine exposure on platelets; assay type: in vivo, mouse; conditions: 1, 6 and 24 hours post IV; compared to resting platelets
Experimental: Male and female C57BL/6J mice (n=6) were intravenously dosed with the following treatments: 1) Saline control (equivalent volume); 2) ML355 (1.5 mg/kg); 3) sHDL (50 mg/kg); or 4) ML355-sHDL (sHDL at 50 mg/kg and ML355 at 1.5 mg/kg). At different time points post administration (1, 6 and 24 hours), the phosphatidylserine-exposure over time course in platelets from different groups were quantified by flow cytometry. Briefly, whole blood was collected from the saphenous vein and incubated with PE anti-mouse CD41 Antibody (BioLegend #133906) for platelet labeling and Annexin V, Alexa Fluor™ 647 conjugate (phosphatidylserine-exposure) (Thermo Fisher Scientific). The mean fluorescent intensity of Annexin in platelets was quantified by flow cytometry. In addition, blood collected from mice prior to treatment was taken as resting platelets (negative control) and blood stimulated with PAR4-AP (200 μM) was used as activated platelets (positive control).

[6] = system: C57BL/6J mice; test: Mouse tail bleeding assay; assay type: in vivo; conditions: 24 hours post IV; ML355 1.5 mg/kg, sHDL 50 mg/kg
Experimental: Male and female C57BL/6J mice (n=6) were intravenously dosed with the following treatments: 1) vehicle control (equivalent volume); 2) ML355 (1.5 mg/kg); 3) sHDL (50 mg/kg); or 4) ML355-sHDL (sHDL at 50 mg/kg and ML355 at 1.5 mg/kg). The tail bleeding assay was performed post 24 hour of treatment as previously described (44, 56). Briefly, mice were anesthetized as described above and placed on a heating pad. Five millimeters of tail tip was excised, and the tails were immediately immersed in 14 mL of sterile saline at 37° C. Bleeding time was recorded as the cessation of blood flow from the tail for at least […] using a stopwatch. The amount of blood loss from tail tip was quantified by measuring hemoglobin using Drabkin's reagent (Sigma). Briefly, blood samples were pelleted at 500 g for 10 minutes at room temperature, and the pellet was resuspended in 5 mL Drabkin's Reagent and incubated at room temperature for 15 minutes. Amount of hemoglobin lost was quantified by comparing the absorbance of the samples at 540 nm using SpectraMax i3 microplate reader (Molecular Devices LLC., San Jose, CA) to a standard curve of bovine hemoglobin in Drabkin's reagent.

[7] = system: whole blood; test: Coagulation tests by thromboelastography; assay type: in vivo, mouse; conditions: 24 hours post IV; ML355 1.5 mg/kg, sHDL 50 mg/kg
Experimental: Male and female C57BL/6J mice (n=6) were intravenously injected with vehicle control (equivalent volume of saline), ML355 (1.5 mg/kg), sHDL (50 mg/kg) or ML355-sHDL (sHDL at 50 mg/kg and ML355 at 1.5 mg/kg), respectively. 24 hours after administration, mice were anesthetized by intraperitoneal injection of ketamine/xylazine mixture as described above. Whole blood was collected via vena cava using a 25 G syringe containing sodium citrate 3.8% (blood to citrate volume ratio is […]). 340 μL citrated blood was mixed with 20 μL CaCl2 (0.2 mol/L), and viscoelastic properties of whole blood clot formation was studied under low shear stress using a Heamoscope TEG 5000 Thrombelastograph Hemostasis Analyzer (Haemonetics Corp., Braintree, Massachusetts, USA) according to the manufacturer's instructions. Major coagulation parameters including R time (time to formation of the initial fibrin threads), Alpha angle (the rapidity with which the clot forms), K time (the time until the clot reaches a certain strength) and maximum amplitude (clot's maximum strength) were analyzed and compared among different groups.

[8] = pH 7.4 PBS; cited from earlier work

platelet phosphatidylserine exposure [5]: did not increase
blood loss evaluated by measuring hemoglobin [6]: no effect
tail bleeding time [6]: did not prolong
coagulation (TEG parameters R time, K time, alpha angle, MA) [7]: did not compromise the coagulation
SMILES: COc1cccc(CNc2ccc(S(=O)(=O)Nc3nc4ccccc4s3)cc2)c1O [ML355, N-2-benzothiazolyl-4-[[(2-hydroxy-3-methoxyphenyl)methyl]amino]-benzenesulfonamide]
platelet aggregation ([1]; 0.1 nM thrombin): 5.6±2.5%
platelet aggregation ([1]; 0.25 nM thrombin): 40.4±6.8%
platelet aggregation ([1]; 0.5 nM thrombin): 76.4±4.7%
platelet aggregation ([2]; 0.1 nM thrombin): 20.3±3.5%
platelet aggregation ([2]; 0.25 nM thrombin): 32.6±6.6%
inhibitory effects on platelet aggregation ([2]; 0.5 nM thrombin, 24 hours after IV dosing): overcome
inhibition of thrombus formation (platelet accumulation in thrombi) [3]: varying levels of inhibition
thrombus growth (and vessel occlusion) [4]: delayed and unstable
mean vessel occlusion time ([4]; ML355 1.5 mg/kg, sHDL 50 mg/kg): 11.0 ± 2.3 min
estimated solubility [8]: < 5 µg/mL
